Where only a bound is given, the exact number is not on record here.

The conditions of series [1]: in vivo.
Another series concerns ammonia in excrement. Briefly: Ammonia concentration in excrement of chickens (Kitagawa's vacuum gas detector). The series is classed as in vivo, chicken. The source says:
The tests were made on commercially available chickens for exclusive use as broilers (kind: Hubbard). 150 Chickens which were just hatched (male: 75, female: 75) were divided into 3 groups, each consisting of 50 chickens. Basal diets (containing no antibiotics, see Tables 6 and 7) were given to one group, and diets containing 2.5 ppm or 10 ppm of multhiomycin were given to the other two groups. The feed was constantly supplied to each group with water for 8 weeks from the hatching. Each group was bred in one windless cage (1.8×5.4×2.7 m, 9.7 m^2 per group), and each cage was kept warm by circulating warm water under the floor until the chickens were two weeks old. Further, the floor were covered with wood chips in a depth of about 3 cm.
About 6 or 8 weeks from the beginning of the test, the ammonia concentration in excrement was measured in each group. The ammonia concentrations in the excrement were measured with Kitagawa's vacuum gas detector and the moisture content therein was measured with the hot-air drying method whereby 2 kg weight of excrement (containing chips) was treated at 100°±2° C. for 24 hours to measure its moisture content.

Another series has as its system ammonia. Briefly: Ammonia concentration in the animal's body, intestine and blood or excrements (general statement). It is filed as in vivo. Particulars: compared with untreated animals.
The nature of series [2]: Acute toxicity (general statement). The series is classed as in vivo. The following applies: in comparison with other antibiotics.
For a further series, the system named is bacteria. Briefly: In vitro action on bacteria. It is filed as cell-based.
Series [3] relates to ammonia (NH3-N) in portal blood. Briefly: Ammonia concentration in portal blood of pigs (modified Fujii-Okuda method). The series is classed as in vivo, pig. The following applies: 10 ppm in diet, after 2 months; for NH3-N in portal blood: control 6.80. The protocol:
(§1) A deproteinizing solution was added to the sample to deproteinize the sample and remove coloration-inhibiting components therefrom and simultaneously deactivate enzymes for preventing formation of ammonia during standing. The supernatant was separated and a coloring solution containing phenol and a nitroprusside salt was added thereto. Then, an alkaline solution was added to the mixture to make it alkaline, and a coloring solution containing sodium hypochlorite was further added to effect oxidation and form indophenol showing a blue color. The absorbance of this color at 630 mμ was measured to determine the ammonia nitrogen concentration. This measurement method is expressed by the following reaction formula: [drawing 1]
(§2) Incidentally, the nitroprusside salt acts as a catalyst in the above reaction.
Young pigs just after weaning were divided into 3 groups, each consisting of 6 pigs. Diets containing 10 ppm of multhiomycin were given to one group, diets containing 10 ppm of thiopeptin as the comparative medicament were given to another group, and a medicament-free diet was given to the remaining one group (control group). After 2 months, with respect to each group, the ammonia concentrations in portal blood were determined according to the modified Fujii-Okuda method.

The subject of series [4] is ammonia (NH3-N) in contents of the colon. Briefly: Ammonia concentration in contents of the colon of chickens (modified Fujii-Okuda method). It is filed as in vivo, chicken. The following applies: after 8 weeks, control 155. As to the method: Chickens just after hatching were divided into 5 groups, each consisting of 10 chickens. Diets containing 2.5 ppm or 5.00 ppm of multhiomycin were given to two groups, respectively, and diets containing 2.5 ppm or 5.00 ppm of thiopeptin were given to other two groups (comparative groups), respectively. A medicament-free diet was given to the remaining one group (control group). After 8 weeks, with respect to each group, the ammonia concentrations in the contents of the colon were determined according to a modification of the method of Fujii and Okuda, described hereinafter.
as §1, §2

The next series in a line: Acidity. It is filed as physicochemical.
For another series, the system named is mice. Briefly: Acute toxicity in mice. The following applies: injection into abdominal cavity; for LD50 in words: mice, compared with multhiomycin. The series is classed as in vivo, mouse. As to the method: Acute toxins of multhiomycin, thiopeptin and thiostrepton administered to mice, were measured by injection of each drug into the abdominal cavities of the mice.

A short description of series [5]: Remaining activity of antibiotics in excrement of chickens (microbial quantitative method). Particulars: 10 μg/g added to chicken excrement, room temperature. As to the method:
(§3) The rise and fall in the activity of the multhiomycin excreted without absorption in the interior of the animal body was compared with the activity of other antibiotics, such as thiopeptin and thiostrepton.
Multhiomycin, thiopeptin and thiostrepton were respectively added to the excrement of chickens bred with the feed containing no antibiotics in a concentration of 10 μg/g. The excrement was preserved under room temperature condition and the remaining potency of each antibiotic in excrement was measured at different time intervals with a microbal quantitative method.

Series [6] is described as follows: Behavior of antibiotics in soil (microbial quantitative method). The following applies: 10 μg/g added to soil, room temperature. As to the method:
as §3
To soils (collected in Kikukawa-cho, Ogasa-gun, Shizuoka-ken, Japan) which were confirmed to have no anti-antibiotic activity were respectively added multhiomycin, thiopeptin and thiostrepton, each containing 10 μg/g concentration of each antibiotic. The soils were preserved under room temperature condition, and the remaining potencies in soils of each antibiotic were measured at different time intervals according to the microbal quantitative method.

On to `C=C(NC(=O)c1csc(-c2nc3c(cc2O)-c2nc(cs2)C(=O)NC(C(C)O)C(=O)NC(=CC)c2nc(cs2)C(=O)NC2CC(O)C(=O)OCc4cccc5[nH]c(c(C)c45)C(=O)SCC(NC(=O)c4csc2n4)c2nc-3cs2)n1)C(N)=O` (stereo not drawn) [Multhiomycin], for which the “Amount remaining in internal organs or muscles, in words” value in series [1] is reported as “so little as to be not perceptible in a recognizable amount”. Besides, the Excretion entry in series [1] is on record as “completely excreted”. The “Ammonia concentration in excrement” value is reported as 9.8 ppm in the series with ammonia in excrement (2.5 ppm in diet, 6 weeks of age, control 25.5); 11.2 ppm with ammonia in excrement (2.5 ppm in diet, 8 weeks of age, control 29.7); 9.0 ppm in the series on ammonia in excrement (10 ppm in diet, 6 weeks of age, control 25.5); 10.0 ppm in the series on ammonia in excrement (10 ppm in diet, 8 weeks of age, control 29.7). The “Ammonia in excrement of treated animals, in words” value in the series with ammonia is “very small amounts of ammonia”. Moreover, in series [2], the “Acute toxicity in words” value is given as “low degree of acute toxicity”. Besides, the Action on bacteria entry in the series with bacteria is recorded as “astonishing action on bacteria”. The “NH3-N in portal blood, value in parentheses (difference from control)” value in [3] is -3.36 µg/mL. The “NH3-N in portal blood” value in series [3] was found to be 3.44 µg/mL. The “NH3-N in contents of colon” value is reported as 60 μg/g of wet matter in [4] (2.5 ppm in diet) and 46 μg/g of wet matter in series [4] (5.0 ppm in diet). Moreover, the Acidity entry in “Acidity” is given as “slightly acidic”. In addition, the “Acute toxicity LD50” value with mice (female mouse) and in the series on mice (male mouse) was > 4,000 mg/kg in each case. In the series with mice (mice, 4,000 mg/kg), the Deaths result is listed as “did not cause a single death”.
Take Thiopeptin: the “Remaining amount in excrement after 5 days” value in series [5] is listed as 52%. Besides, the “Remaining ratio in soil after 60 days” value in series [6] stood at 41%. Besides, the “NH3-N in portal blood, value in parentheses (difference from control)” value in series [3] is -0.8 µg/mL. Besides, in [3], the “NH3-N in portal blood” value worked out at 6.00 µg/mL. The “NH3-N in contents of colon” value in series [4] (2.5 ppm in diet) is given as 120 μg/g of wet matter; in series [4] (5.0 ppm in diet), 100 μg/g of wet matter. Further, the entries for the “Acute toxicity LD50” value in the series on mice (female mouse) and in the series with mice (male mouse) were 660 mg/kg and 780 mg/kg, respectively. Moreover, the LD50 in words result with mice is reported as “small values of LD50”.
For Thiostrepton, the “Remaining amount in excrement after 5 days” value in series [5] came to 43%. Also, the “Remaining ratio in soil after 60 days” value in series [6] stood at 44%. In addition, the “Acute toxicity LD50” value with mice (male mouse) was 85 mg/kg. Besides, the LD50 in words entry in the series with mice is on record as “small values of LD50”.
